{
  "source": "ChEMBL document CHEMBL4346726",
  "about": "(Bioorg Med Chem Lett, 2019)",
  "key": {"[1]": {"tested_on": "Hepatitis C virus", "assay": "Antiviral activity against HCV genotype 1a harboring Q80K mutant in RLuc cells assessed as reduction in viral replication by luciferase reporter gene assay", "assay_type": "functional, organism-based, Hepacivirus hominis", "settings": "subtype 1a"}, "[2]": {"tested_on": "Hepatitis C virus", "assay": "Antiviral activity against HCV genotype 1a harboring R155K mutant in RLuc cells assessed as reduction in viral replication by luciferase reporter gene assay", "assay_type": "functional, organism-based, Hepacivirus hominis", "settings": "subtype 1a"}, "[3]": {"assay": "Half life in cynomolgus monkey at 0.5 mg/kg, iv or 1 mg/kg, po", "assay_type": "ADME, organism-based, Macaca fascicularis", "settings": "in vivo"}, "[4]": {"assay": "Protein binding in dog plasma", "assay_type": "ADME, Canis lupus familiaris", "settings": "read-out: PPB"}, "[5]": {"assay": "Protein binding in human plasma", "assay_type": "ADME", "settings": "read-out: PPB"}, "[6]": {"tested_on": "Hepatitis C virus", "assay": "Antiviral activity against HCV genotype 1b in RLuc cells assessed as reduction in viral replication by luciferase reporter gene assay", "assay_type": "functional, organism-based, Hepacivirus hominis", "settings": "subtype 1b"}, "[7]": {"assay": "Fraction unbound in cynomolgus monkey plasma", "assay_type": "ADME, cell-free, Macaca fascicularis"}, "[8]": {"tested_on": "Hepatitis C virus", "assay": "Antiviral activity against HCV genotype 5a in RLuc cells assessed as reduction in viral replication by luciferase reporter gene assay", "assay_type": "functional, organism-based, Hepacivirus hominis", "settings": "subtype 5a"}, "[9]": {"assay": "Ratio of drug level in dog liver to plasma at 0.5 mg/kg, iv or 1 mg/kg, po measured at 2 hr", "assay_type": "ADME, […], Canis lupus familiaris"}, "[10]": {"tested_on": "Hepatitis C virus", "assay": "Antiviral activity against HCV genotype 1a harboring A156T mutant in RLuc cells assessed as reduction in viral replication by luciferase reporter gene assay", "assay_type": "functional, organism-based, Hepacivirus hominis", "settings": "subtype 1a"}, "[11]": {"assay": "Oral bioavailability in rat at 3 mg/kg", "assay_type": "ADME, organism-based", "settings": "in vivo"}, "[12]": {"assay": "Fraction unbound in rat plasma", "assay_type": "ADME, cell-free"}, "[13]": {"assay": "Steady state half life in human at 30 to 300 mg administered once daily for 7 days measured under phase 1 clinical trials", "assay_type": "ADME", "settings": "in vivo, read-out: t1/2ss"}, "[14]": {"assay": "Fraction absorbed in rat at 3 mg/kg, po", "assay_type": "ADME, organism-based", "settings": "in vivo, read-out: Fabs"}, "[15]": {"tested_on": "Hepatitis C virus", "assay": "Antiviral activity against HCV genotype 2b in RLuc cells assessed as reduction in viral replication by luciferase reporter gene assay", "assay_type": "functional, organism-based, Hepacivirus hominis", "settings": "subtype 2b"}, "[16]": {"tested_on": "Hepatitis C virus", "assay": "Antiviral activity against HCV genotype 3a in RLuc cells assessed as reduction in viral replication by luciferase reporter gene assay", "assay_type": "functional, organism-based, Hepacivirus hominis, subtype 3a", "settings": "Hepatitis C virus, subtype 3a"}, "[17]": {"assay": "Ratio of drug level in rat liver to plasma at 1 mg/kg, iv or 3 mg/kg, po measured at 2 hr", "assay_type": "ADME, organism-based"}, "[18]": {"assay": "Drug uptake in human hepatocytes", "assay_type": "ADME, cell-based, Hepatocyte", "settings": "TDE = time-dependent effect"}, "[19]": {"assay": "Half life in rat at 1 mg/kg, iv or 3 mg/kg, po", "assay_type": "ADME, organism-based", "settings": "in vivo"}, "[20]": {"tested_on": "Hepatitis C virus", "assay": "Antiviral activity against HCV genotype 4a in RLuc cells assessed as reduction in viral replication by luciferase reporter gene assay", "assay_type": "functional, organism-based, Hepacivirus hominis", "settings": "subtype 4a"}, "[21]": {"assay": "Drug uptake in organic-anion-transporting polypeptide over expressing CHO cells", "assay_type": "ADME, cell-based, Cricetulus griseus", "settings": "chinese hamster, TDE = time-dependent effect"}, "[22]": {"assay": "Clearance in rat at 1 mg/kg, iv or 3 mg/kg, po", "assay_type": "ADME, organism-based", "settings": "in vivo"}, "[23]": {"assay": "Oral bioavailability in cynomolgus monkey at 1 mg/kg", "assay_type": "ADME, organism-based, Macaca fascicularis", "settings": "in vivo"}, "[24]": {"assay": "Selectivity ratio of EC50 for antiviral activity against HCV genotype 3a to EC50 for antiviral activity against HCV genotype 1a", "assay_type": "functional"}, "[25]": {"tested_on": "Hepatitis C virus", "assay": "Antiviral activity against HCV genotype 1b harboring A156T mutant in RLuc cells assessed as reduction in viral replication by luciferase reporter gene assay", "assay_type": "functional, organism-based, Hepacivirus hominis", "settings": "subtype 1b"}, "[26]": {"assay": "Protein binding in cynomolgus monkey plasma", "assay_type": "ADME, Macaca fascicularis", "settings": "read-out: PPB"}, "[27]": {"assay": "Fraction absorbed in cynomolgus monkey at 1 mg/kg, po", "assay_type": "ADME, organism-based, Macaca fascicularis", "settings": "in vivo, read-out: Fabs"}, "[28]": {"assay": "Fraction unbound in human plasma", "assay_type": "ADME, cell-free"}, "[29]": {"tested_on": "Hepatitis C virus", "assay": "Antiviral activity against HCV genotype 1b harboring D168E mutant in RLuc cells assessed as reduction in viral replication by luciferase reporter gene assay", "assay_type": "functional, organism-based, Hepacivirus hominis", "settings": "subtype 1b"}, "[30]": {"assay": "Inhibition of HCV genotype 3a NS3/4a protease by enzymatic assay", "parameters": "species or system Hepatitis C virus subtype 3a"}, "[31]": {"assay": "Clearance in dog at 0.5 mg/kg, iv or 1 mg/kg, po", "assay_type": "ADME, […], Canis lupus familiaris", "settings": "in vivo"}, "[32]": {"assay": "Volume of distribution at steady state in dog at 0.5 mg/kg, iv or 1 mg/kg, po", "assay_type": "ADME, […], Canis lupus familiaris", "settings": "in vivo, read-out: Vdss"}, "[33]": {"assay": "Half life in dog at 0.5 mg/kg, iv or 1 mg/kg, po", "assay_type": "ADME, […], Canis lupus familiaris", "settings": "in vivo"}, "[34]": {"tested_on": "Hepatitis C virus", "assay": "Antiviral activity against HCV genotype 6a in RLuc cells assessed as reduction in viral replication by luciferase reporter gene assay", "assay_type": "functional, organism-based, Hepacivirus hominis", "settings": "subtype 6a"}, "[35]": {"assay": "Volume of distribution at steady state in rat at 1 mg/kg, iv or 3 mg/kg, po", "assay_type": "ADME, organism-based", "settings": "in vivo, read-out: Vdss"}, "[36]": {"assay": "Oral bioavailability in dog at 1 mg/kg", "assay_type": "ADME, […], Canis lupus familiaris", "settings": "in vivo"}, "[37]": {"assay": "Fraction unbound in dog plasma", "assay_type": "ADME, cell-free, Canis lupus familiaris"}, "[38]": {"assay": "Volume of distribution at steady state in cynomolgus monkey at 0.5 mg/kg, iv or 1 mg/kg, po", "assay_type": "ADME, organism-based, Macaca fascicularis", "settings": "in vivo, read-out: Vdss"}, "[39]": {"assay": "Ratio of drug level in cynomolgus monkey liver to plasma at 0.5 mg/kg, iv or 1 mg/kg, po measured at 2 hr", "assay_type": "ADME, organism-based, Macaca fascicularis"}, "[40]": {"assay": "Fraction absorbed in dog at 1 mg/kg, po", "assay_type": "ADME, […], Canis lupus familiaris", "settings": "in vivo, read-out: Fabs"}, "[41]": {"tested_on": "Hepatitis C virus", "assay": "Antiviral activity against HCV genotype 1a in RLuc cells assessed as reduction in viral replication by luciferase reporter gene assay", "assay_type": "functional, organism-based, Hepacivirus hominis", "settings": "subtype 1a"}, "[42]": {"assay": "Clearance in cynomolgus monkey at 0.5 mg/kg, iv or 1 mg/kg, po", "assay_type": "ADME, organism-based, Macaca fascicularis", "settings": "in vivo"}, "[43]": {"assay": "Protein binding in rat plasma", "assay_type": "ADME", "settings": "read-out: PPB"}, "[44]": {"tested_on": "Hepacivirus hominis", "assay": "Binding affinity to HCV NS3/4a protease assessed as compound-protein adduct formation per mg protein using radiolabelled compound"}, "[45]": {"tested_on": "Hepatitis C virus", "assay": "Antiviral activity against HCV genotype 2a in RLuc cells assessed as reduction in viral replication by luciferase reporter gene assay", "assay_type": "functional, organism-based, Hepacivirus hominis", "settings": "subtype 2a"}},
  "data": [
    {"molecule": "CC[C@@H]1[C@@H]2CN(C(=O)[C@H](C(C)(C)C)NC(=O)O[C@@H]3C[C@H]3CCCCC(F)(F)c3nc4ccc(OC)cc4nc3O2)[C@@H]1C(=O)N[C@]1(C(=O)NS(=O)(=O)C2(C)CC2)C[C@H]1C(F)F", "values": [
      {"measurement": "EC50", "setting": "[1]", "result": 3.1, "unit": "nM"},
      {"measurement": "EC50", "setting": "[2]", "result": 2.7, "unit": "nM"},
      {"measurement": "half-life", "setting": "[3]", "result": 2.1, "unit": "h"},
      {"measurement": "fraction unbound", "setting": "[4]", "result": "< 0.01"},
      {"measurement": "fraction unbound", "setting": "[5]", "result": "< 0.01"},
      {"measurement": "EC50", "setting": "[6]", "result": 3.3, "unit": "nM"},
      {"measurement": "Fu", "setting": "[7]", "result": 0.91, "unit": "%"},
      {"measurement": "EC50", "setting": "[8]", "result": 1.9, "unit": "nM"},
      {"measurement": "Kp at 2 h", "setting": "[9]", "result": 55},
      {"measurement": "EC50", "setting": "[10]", "result": "> 500", "unit": "nM"},
      {"measurement": "bioavailability", "setting": "[11]", "result": 83, "unit": "%"},
      {"measurement": "Fu", "setting": "[12]", "result": 0.42, "unit": "%"},
      {"measurement": "half-life", "setting": "[13]", "result": "28 to 41", "unit": "h"},
      {"measurement": "Fa", "setting": "[14]", "result": 100, "unit": "%"},
      {"measurement": "EC50", "setting": "[15]", "result": 6.6, "unit": "nM"},
      {"measurement": "EC50", "setting": "[16]", "result": 6.1, "unit": "nM"},
      {"measurement": "Kp at 2 h", "setting": "[17]", "result": "> 500"},
      {"measurement": "Drug uptake", "setting": "[18]", "result": "Tde"},
      {"measurement": "half-life", "setting": "[19]", "result": 0.93, "unit": "h"},
      {"measurement": "EC50", "setting": "[20]", "result": 4.9, "unit": "nM"},
      {"measurement": "Drug uptake", "setting": "[21]", "result": "Tde"},
      {"measurement": "clearance", "setting": "[22]", "result": 13.7, "unit": "mL/min/kg"},
      {"measurement": "bioavailability", "setting": "[23]", "result": 10, "unit": "%"},
      {"measurement": "Ratio EC50", "setting": "[24]", "result": "<2"},
      {"measurement": "EC50", "setting": "[25]", "result": "> 500", "unit": "nM"},
      {"measurement": "fraction unbound", "setting": "[26]", "result": "< 0.01"},
      {"measurement": "Fa", "setting": "[27]", "result": 23, "unit": "%"},
      {"measurement": "Fu", "setting": "[28]", "result": 0.46, "unit": "%"},
      {"measurement": "EC50", "setting": "[29]", "result": 4, "unit": "nM"},
      {"measurement": "Ki", "setting": "[30]", "result": 0.063, "unit": "nM"},
      {"measurement": "clearance", "setting": "[31]", "result": 3.17, "unit": "mL/min/kg"},
      {"measurement": "Vd", "setting": "[32]", "result": 0.94, "unit": "L/kg"},
      {"measurement": "half-life", "setting": "[33]", "result": 4.2, "unit": "h"},
      {"measurement": "EC50", "setting": "[34]", "result": 1.5, "unit": "nM"},
      {"measurement": "Vd", "setting": "[35]", "result": 0.84, "unit": "L/kg"},
      {"measurement": "bioavailability", "setting": "[36]", "result": 27, "unit": "%"},
      {"measurement": "Fu", "setting": "[37]", "result": 0.28, "unit": "%"},
      {"measurement": "Vd", "setting": "[38]", "result": 0.8, "unit": "L/kg"},
      {"measurement": "Kp at 2 h", "setting": "[39]", "result": 100},
      {"measurement": "Fa", "setting": "[40]", "result": 30, "unit": "%"},
      {"measurement": "EC50", "setting": "[41]", "result": 3.9, "unit": "nM"},
      {"measurement": "clearance", "setting": "[42]", "result": 14.8, "unit": "mL/min/kg"},
      {"measurement": "fraction unbound", "setting": "[43]", "result": "< 0.01"},
      {"measurement": "PB", "setting": "[44]", "result": "< 1", "unit": "pmol/mg"},
      {"measurement": "EC50", "setting": "[45]", "result": 3.7, "unit": "nM"}
    ]}
  ]
}
